Data reported in a melting point compilation (Tetko et al.; mined from patent text by program, amines drawn as free bases though some values may be those of a salt).

Row | Structure (SMILES) | melting point
1 | COc1c(NC(=O)c2c(F)cc(F)cc2F)cccc1C(=O)Nc1c(Cl)cc(C(F)(C(F)(F)F)C(F)(F)C(F)(F)F)cc1Br (stereo unspecified) | 179 °C
2 | COc1cc2c(c(Br)c1OC(C)=O)Sc1cc(C)ccc1N2 | 193 to 194 °C
3 | Cc1nc2c(-c3cccc(N4CCN(C)CC4)c3)cnn2c(N)c1-c1ccc(F)c(F)c1 | 216 to 219 °C
4 | CCC(Oc1ccc(Cl)c(C)c1)C(=O)NCc1ccccc1Cl (stereo unspecified) | 107 to 109 °C
5 | Cn1nc(CBr)cc1C(=O)NCCc1ccccc1 | 112 to 113 °C
6 | CC(C)C(O)(Cn1cncn1)c1ccc(C#CI)cc1 (stereo unspecified) | 122 °C
7 | CCc1cc2c(=O)c(C(=O)O)cn(Cc3ccc(-c4ccccc4-c4nnn[nH]4)cc3)c2s1 | 153 to 157 °C
8 | Cn1cc(-c2ccncn2)ccc1=O | 147 to 149 °C
9 | CCOC(=O)c1cnc2c(c(C)nn2CC)c1Cl | 70 to 74 °C
10 | CC(C)(C)NCC(O)COc1ccc(-c2nc(-c3ccccc3)c[nH]2)cc1 (stereo unspecified) | 176 to 178 °C
11 | O=C1CC(c2cccs2)=Nc2ccc(-c3ccc(=O)[nH]c3)cc2N1 | > 250 °C
12 | COc1cc2c(cc1OC)-c1ncc(C#N)c(=O)n1CC2 | 261 to 262 °C
13 | Cc1ccc2c(c1)S(=O)(=O)CC(COC(=O)Nc1ccccc1)(COC(=O)Nc1ccccc1)C2=O | 85 to 95 °C
14 | Cn1c2c(ccc1=O)C(NCCc1ccc(Cl)cc1Cl)CCC2 (stereo unspecified) | 102 to 103 °C
15 | CCOC(=O)C(=CNc1ccc(OCC)c(C)n1)C(=O)OCC | 132 to 138 °C
16 | COC(=O)C(C)(C)OCc1cc2nc(Cl)ccc2n1S(=O)(=O)c1ccccc1 | 84 to 87 °C
17 | C#CC1(O)C(CO)OC(n2ccc(N)nc2=O)C1O (stereo unspecified) | 233 to 235 °C
18 | COc1cccc2c(Nc3cccc(Br)c3)c(C#N)cnc12 | 210 to 212 °C
19 | CC(C)(C)OC(=O)NN(C(=O)c1ccccc1)C(C)(C)C | 167 to 170 °C
20 | COC(=O)C(=O)c1ccc(N(C=O)CCOc2ccc3ccccc3c2)cc1 | 103 to 104 °C
21 | O=C(N[C@@H](Cc1ccccc1)C(=O)CSCc1ccco1)OCc1ccccc1 | 64 °C
22 | Cn1nc2c3c(c(Cl)ccc31)C(=O)c1cnccc1-2 | 244 to 245 °C
23 | CCCCCCCCCCCCCCCCCCCCCCCCCCCCOC(=O)c1cccnc1 | 65 to 70 °C
24 | O=C(CCCOc1ccc2nc3[nH]c(=O)[nH]c3cc2c1)NC1CCCC1 | > 320 °C
25 | O=c1oc2c(c(=O)n1C1CCCCCCC1)CCC2 | 48 to 51 °C
26 | CCCc1nn(-c2ccc(C(F)(F)F)cn2)cc1CCCOc1nn(C2CCCCC2)cc1CC(=O)O | 127 to 128 °C
27 | CS(=O)(=O)N1CC1COc1ccc(C#N)cc1 (stereo unspecified) | 79 to 81 °C

Row | Structure (SMILES) | melting point
28 | COc1ccc(NC(=S)Nc2cscc2C)c(N)c1 | 143 to 146 °C
29 | N#CCc1cccc(C(=O)c2ccccc2)c1N | 138 to 139 °C
30 | COC(=O)C1=C(C(OC)OC)NC(C)=C(c2nc(CCl)no2)C1c1cccc([N+](=O)[O-])c1 (stereo unspecified) | 141 to 142 °C
31 | CCN1CCCCC1CCc1ccccc1NC(=O)c1ccc(OC)cc1 (stereo unspecified) | 136 to 138 °C
32 | C=C(c1ccc(I)cc1)C(O)(Cn1cncn1)c1ccccc1Cl (stereo unspecified) | 128 to 130 °C
33 | COc1cc2cc(Cc3ccccc3)c(C)cc2c(C(C)C)c1OC | 159 to 161 °C
34 | CC(C)c1nccn1S(=O)(=O)c1c[nH]cn1 | 118 to 120 °C
35 | COc1cc2c(cc1OC(C)=O)CCC1C3=CC=C(OC(C)=O)C3(C)CCC21 (stereo unspecified) | 191 to 194 °C
36 | COc1ccc(C2=CCN(Cc3ccccc3)CC2)cc1OC | 94 to 96 °C
37 | CNC(=O)Oc1ccc(NC(=O)COC)c(C)c1 | 130 to 132 °C
38 | Cc1cc(C(=O)Nc2c(C)cccc2O)c(Br)s1 | 164 to 167 °C
39 | COC(C)c1cccc2oc(C(=O)O)c(C)c12 (stereo unspecified) | 113 to 115 °C
40 | O=[N+]([O-])c1cc(CCl)ccc1OCc1ccccc1 | 60 to 61 °C
41 | CCCCCCCCCCCCCCCCCCNC(=O)Nc1cccc([N+](=O)[O-])c1 | 102 to 104 °C
42 | O=C(NC1CC1)OC1c2ccccc2C(=O)N1c1ccc2ccc(Cl)nc2n1 (stereo unspecified) | 220 °C
43 | COc1cc(C(C)C)ccc1C1(Br)C(=O)c2cccc(NC(C)=O)c2C1=O (stereo unspecified) | 143 to 145 °C
44 | CC12CC(=O)C3C(CCC4CC=CCC43C)C1CCC2=O (stereo unspecified) | 188 to 192 °C
45 | CCCN1CC(C)=CC2=C1N1CN(OC)C=C1N=N2 | 163 to 165 °C
46 | CCOc1sc(C(=O)N2CCCC2)c2c1-c1oncc1C(C)(C)C2 | 123 to 126 °C
47 | O=C1CCCC12CNc1ccc(Cl)cc12 (stereo unspecified) | 201 to 202 °C
48 | Cc1ccc(N2C(=O)N(CC(=O)Nc3c(C(C)C)cccc3C(C)C)C(=O)C23CCN(C(=O)OC(C)(C)C)CC3)cc1 | 227 to 229 °C
49 | CCC12CCC(=O)C=C1c1c(cc(OCC(=O)O)c(Cl)c1Cl)C2C (stereo unspecified) | 212 to 214 °C
50 | OCC(CO)Cc1cccc(Br)c1 | 61 to 63 °C
51 | COc1ccc(CC2NC(=O)NC2=O)cc1OCc1ccccc1 (racemic) | 155 to 157 °C
52 | c1ccc(C(OC2CCNCC2)c2ccccc2)cc1 | 56 °C
53 | CS(=O)(=O)c1ccc(-c2cnn(-c3cccc(S(C)(=O)=O)c3)c(=O)c2-c2ccc(F)cc2)cc1 | 141 to 142 °C

Second part, the molecule after the results:

Row | melting point | Structure (SMILES)
54 | 257 to 260 °C | CC(C)(C)Nc1c(Nc2cnc3ccccc3c2)c(=O)c1=O
55 | 225 to 228 °C | O=C(O)Cc1c(C(=O)C2CCC2)[nH]c2cc(Cl)ccc12
56 | 146 to 148 °C | CC(C)Oc1cc(CCCOc2cc(CCC(=O)O)n(-c3ccccc3)n2)n(Cc2ccc(Cl)cc2Cl)n1
57 | 150 to 152 °C | NC(=O)Cc1csc(-c2cccc(Br)c2)n1
58 | 109 to 111 °C | COc1ccc(NN=C(Sc2ccc(C)cc2C)C(C)=O)cc1
59 | 175 to 178 °C | N=C(N)Nc1nc(CSCCNC(=O)c2cccc(NS(=O)(=O)c3ccccc3)c2)cs1
60 | 114 to 116 °C | COC(=O)C(Cc1ccc([N+](=O)[O-])c(OCc2ccccc2)c1)(NC(=O)OC(C)(C)C)C(=O)OC
61 | 196 to 197 °C | CCOC(=O)c1ccc(Cn2c(C)nc3ccc(C(=O)NS(=O)(=O)c4ccccc4)nc32)c(Cl)c1
62 | 171 to 173 °C | CCCCC(=O)Nc1nc2ccc(Cl)cc2nc1NC(=O)CCCC
63 | 160 to 165 °C | CCN1C(=O)C(C)(C)C(=O)N(C)c2cc(CN(CCn3ccc4oc(C)cc4c3=O)CCn3ccc4oc(C)cc4c3=O)ccc21
64 | 93 to 95 °C | COC(=O)C1Oc2ccccc2Cc2ccc(OC)cc2O1 (stereo unspecified)
65 | 141 to 142 °C | COc1ccc(CCCCOCc2cccc(/C=C/c3cccc(NC(=O)CCC(C)(C)C(=O)O)c3)n2)cc1
66 | 139 to 142 °C | COc1cccc([C@H]2O[C@H](CC(=O)Nc3cccc(C(=O)O)c3C)C(=O)N(CC(C)(C)COC(C)=O)c3ccc(Cl)cc32)c1OC
67 | 125 to 126 °C | CC(CC(Sc1cc(C(C)(C)C)c(O)c(C(C)(C)C)c1)Sc1cc(C(C)(C)C)c(O)c(C(C)(C)C)c1)Sc1cc(C(C)(C)C)c(O)c(C(C)(C)C)c1 (stereo unspecified)
68 | 112 to 115 °C | CC1CCCC(C)N1Cc1ccc(N)cc1 (stereo unspecified)
69 | 108 to 111 °C | OC(c1cccnc1)c1ccc(Cl)cc1Cl (stereo unspecified)
70 | 86 to 87 °C | COCCCc1nc(C(F)F)ccc1C(=O)O
71 | 169 to 171 °C | c1nnc2c3c(c(NCCCN4CCCC4)nn12)CCCC3
72 | 131 °C | CC(C)c1occc1S(=O)(=O)c1ccc(O)cc1
73 | 161 to 162 °C | O=[N+]([O-])c1ccc(F)nc1Nc1ccc2c(c1)OCO2
74 | 120 to 121 °C | CC(C)CCCC(C)C1CCC2C3C=CC4=CC(O)CC(O)C4(C)C3CCC12C (stereo unspecified)
75 | 168 to 170 °C | CCCCc1ncc(CC(=O)N[C@@H](Cc2ccccc2)C(=O)O)n1Cc1ccccc1Cl
76 | 169 to 170 °C | CCCc1c(O)c(C(C)=O)cc2c1N=C(C(=O)OC)CC2=O
77 | 95 to 97 °C | Cc1sc(N)c(C(=O)c2ccco2)c1C

Row | melting point | Structure (SMILES)
78 | 195 to 196 °C | CS(=O)(=O)c1ccc(Oc2ccc(C#N)cc2)nc1
79 | 160 °C | Cc1nc(C(F)(F)F)ccc1C(=O)C1=C(O)C2CC2C(C)(S(C)=O)C1=O (stereo unspecified)
80 | 230 to 232 °C | CCc1[nH]n(C2CCCC2)c2nc(-c3cccc(OCc4ccncc4)c3)nc(=O)c1-2
81 | 136 °C | CC1CCN(c2ccc([N+](=O)[O-])cc2C(=O)c2ccc(Cl)cc2)CC1
82 | 138 to 141 °C | CC(COC1CCCCO1)C1CCC2C3CC=C4CC(O)CC(O)C4(C)C3CCC12C (stereo unspecified)
83 | 169 to 170 °C | O=C(O)CCc1conc1-c1ccc(-c2ccccc2)cc1
84 | 271 to 274 °C | Cc1cc(Cn2cccn2)cc2c1Cc1c(-c3ccsc3)n[nH]c1-2
85 | 62 to 64 °C | CCOC(=O)c1cc2ccccc2n1C
86 | 279 to 280 °C | O=C(O)c1cc2cc3c(cc2oc1=O)OCO3
87 | 109 to 110 °C | CCOC(=O)c1ccc(Sc2cc3c(cc2C)C(C)(C)CCC3(C)C)cc1
88 | 74 to 76 °C | COC(=O)c1cc(C(=O)OC)c(O)c([N+](=O)[O-])c1
89 | 54 °C | COc1ccc(C=O)cc1CS(=O)(=O)O
90 | 90 to 94 °C | Cc1ccc(S(=O)(=O)N(C)SSN(C)S(=O)(=O)c2ccc(C)cc2)cc1
91 | 162 °C | NC(=S)C1CCCc2c1ncc1c2CCCC1 (stereo unspecified)
92 | 146 to 148 °C | Cc1cccc(-n2nc3c(c2OS(=O)(=O)C(F)(F)F)CCC3)n1
93 | 218 to 220 °C | COC(=O)C1=C(C)NC(C)=C(C(=O)OC)C1c1ccccc1CO
94 | 160 to 163 °C | CN(CCSc1ccc(NS(C)(=O)=O)cc1)CCc1ccc(NS(C)(=O)=O)cc1
95 | 162 to 164 °C | O=c1ccccn1[C@@H]1c2cc(C(F)(F)C(F)(F)F)ccc2OC(CF)(CF)[C@H]1O (relative stereo)
96 | 101 to 103 °C | COC(=O)C(Cl)Cc1ccc(-n2c(=O)cc(C(F)(F)F)n(C)c2=O)c(F)c1 (stereo unspecified)
97 | 205 to 207 °C | CN(Cc1ccc(NC(=O)C2=Cc3cc(OCc4ccccc4Cl)ccc3S(=O)(=O)CC2)cc1)C1CCOCC1
98 | 98 to 100 °C | CC(=O)c1c(-c2ccsc2)sc(-c2ccncc2)c1C
99 | 258 to 260 °C | Cc1nc2c(C)nn(C)c2c(=O)[nH]1
100 | 199 to 201 °C | Cc1cc(O)c(C)c2sc(N)nc12
101 | 213 to 214 °C | CN(C)C(=O)c1cccc2c1nc(-c1c(F)cccc1F)n2Cc1c(F)cccc1F
